Converted amounts (≈) assume the structure as drawn. Read-outs that look alike come from different tables or passages of the source.
Assays:
C. glabrata = assay: Checkerboard FIC assay in combination with fluconazole (MIC alone and in combination, FICI); type: cell-based, Candida glabrata; details: for FICI of combination resulting in fluconazole MIC of: 2 ug/mL / FICI of combination resulting in fluconazole MIC of: 4 ug/mL / FICI of combination resulting in fluconazole MIC of: 8 ug/mL: FICI calculated using a fluconazole MIC of 16 μg/mL; for FICI of combination resulting in fluconazole MIC of: 2 ug/mL (value in parenthesis) / FICI of combination resulting in fluconazole MIC of: 4 ug/mL (value in parenthesis) / FICI of combination resulting in fluconazole MIC of: 8 ug/mL (value in parenthesis): FICI using a fluconazole MIC of 128 μg/mL; for MIC: Nakaseomyces glabratus; for Multiple of compound MIC to synergize fluconazole MIC to 2 ug/mL / Multiple of compound MIC to synergize fluconazole MIC to 4 ug/mL / Multiple of compound MIC to synergize fluconazole MIC to 8 ug/mL: concentration in combination as multiple of the compound's MIC alone; for Multiple of compound MIC to synergize fluconazole MIC to 2 ug/mL: fluconazole MIC 2 ug/mL; for Multiple of compound MIC to synergize fluconazole MIC to 4 ug/mL: fluconazole MIC 4 ug/mL; for Multiple of compound MIC to synergize fluconazole MIC to 8 ug/mL: fluconazole MIC 8 ug/mL; for Concentration of Methylgene compound to synergize fluconazole MIC to 2 ug/mL / Concentration of Methylgene compound to synergize fluconazole MIC to 4 ug/mL / Concentration of Methylgene compound to synergize fluconazole MIC to 8 ug/mL: in combination with fluconazole; for Concentration of Methylgene compound to synergize fluconazole MIC to 2 ug/mL: fluconazole MIC lowered to 2 ug/mL; for Concentration of Methylgene compound to synergize fluconazole MIC to 4 ug/mL: fluconazole MIC lowered to 4 ug/mL; for Concentration of Methylgene compound to synergize fluconazole MIC to 8 ug/mL: fluconazole MIC lowered to 8 ug/mL
In short: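 C. glabrata was tested by CLSI broth microdilution checkerboard, crossing 2-fold dilutions of compound with 2-fold dilutions of fluconazole. The medium was RPMI with 0.165 M MOPS at pH 7.0, inoculated from a 0.5 McFarland suspension diluted 1:100, then incubated about 48 h at 35 °C. Single-agent MICs gave the FIC and FICI values.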

Candida parapsilosis = assay: Minimal Inhibitory Concentration (MIC) assay, broth microdilution per CLSI; type: cell-based; details: Lodderomyces parapsilosis, read-out: Minimum Inhibitory Concentrations against Yeast Isolates, Candida parapsilosis;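 further: two read times 24 hr and 48 hr of incubation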
In short: (§1)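 CLSI broth microdilution in RPMI with 0.165 M MOPS, pH 7.0, inoculum from 0.5 McFarland suspension diluted 1:100; compounds in DMSO. Incubation at 35°C for about 24-48 hr; MIC is lowest concentration without visible growth, fluconazole at prominent decrease in growth.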

Candida albicans = assay: as above; type: cell-based; details: Candida albicans, read-out: Minimum Inhibitory Concentrations against Yeast Isolates, Candida albicans;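 further: two read times 24 hr and 48 hr of incubation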
In short: as §1

Candida glabrata = assay: as above; type: cell-based; details: Nakaseomyces glabratus, read-out: Minimum Inhibitory Concentrations against Yeast Isolates, Candida glabrata;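 further: two read times 24 hr and 48 hr of incubation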
In short: as §1

[1] = MIC of the example compound alone against C. glabrata in the checkerboard assay, approximately 48 hr, read-out: Methylgene MIC
[2] = test compound alone, C. glabrata, approx. 48 hr at 35° C., read-out: Compound MIC
[3] = 24 hr reading (first value of cell 24 hr/48 hr)
[4] = 48 hr reading (second value of cell 24 hr/48 hr)

| SMILES | FICI of combination resulting in fluconazole MIC of: 2 ug/mL (C. glabrata; C. glabrata) | FICI of combination resulting in fluconazole MIC of: 4 ug/mL (C. glabrata; C. glabrata) | FICI of combination resulting in fluconazole MIC of: 8 ug/mL (C. glabrata; C. glabrata) | FICI of combination resulting in fluconazole MIC of: 2 ug/mL (value in parenthesis) (C. glabrata; C. glabrata) | FICI of combination resulting in fluconazole MIC of: 4 ug/mL (value in parenthesis) (C. glabrata; C. glabrata) | FICI of combination resulting in fluconazole MIC of: 8 ug/mL (value in parenthesis) (C. glabrata; C. glabrata) | MIC (C. glabrata; [1]) [µg/mL] | MIC (C. glabrata; [2]) [µg/mL] | Multiple of compound MIC to synergize fluconazole MIC to 2 ug/mL (C. glabrata) | Multiple of compound MIC to synergize fluconazole MIC to 4 ug/mL (C. glabrata) | Multiple of compound MIC to synergize fluconazole MIC to 8 ug/mL (C. glabrata) | Concentration of Methylgene compound to synergize fluconazole MIC to 2 ug/mL (C. glabrata; C. glabrata) [µg/mL] | Concentration of Methylgene compound to synergize fluconazole MIC to 4 ug/mL (C. glabrata; C. glabrata) [µg/mL] | Concentration of Methylgene compound to synergize fluconazole MIC to 8 ug/mL (C. glabrata; C. glabrata) [µg/mL] | MIC (Candida parapsilosis; [3]) [µg/mL] | MIC (Candida parapsilosis; [4]) [µg/mL] | MIC (Candida albicans; [3]) [µg/mL] | MIC (Candida albicans; [4]) [µg/mL] | MIC (Candida glabrata; [3]) [µg/mL] | MIC (Candida glabrata; [4]) [µg/mL] |
| --- | --- | --- | --- | --- | --- | --- | --- | --- | --- | --- | --- | --- | --- | --- | --- | --- | --- | --- | --- | --- |
| O=C(Cc1ccc(CCCCc2ccc(C(=O)N3CCN(C/C=C/c4ccccc4)CC3)cc2)cc1)NO [Example 20, (E)-2-(4-(4-(4-(4-cinnamylpiperazine-1-carbonyl)phenyl)butyl)phenyl)-N-hydroxyacetamide] | 0.563 | 0.375 | 0.500 | 0.516 | 0.281 | 0.313 | 1 | 1 | (½x) | (¼x) | (¼x) | 0.5 | 0.25 | 0.25 | > 8 | > 8 | > 8 | > 8 | 2 (≈ 3.91 µM) | 2 (≈ 3.91 µM) |
| O=C(Cc1ccc(CCCCc2ccc(C(=O)N3CCN(CCn4ccnc4)CC3)cc2)cc1)NO [Example 21, 2-(4-(4-(4-(4-(2-(1H-imidazol-1-yl)ethyl)piperazine-1-carbonyl)phenyl)butyl)phenyl)-N-hydroxyacetamide] | 0.313 | 0.250 | 0.375 | 0.266 | 0.156 | 0.188 | 16 | 16 | (¼x) | (⅛X) | (⅛X) | 4 | 2 | 2 | > 64 | > 64 | > 64 | > 64 | 16 (≈ 32.7 µM) | 32 (≈ 65.4 µM) |
| O=C(Cc1ccc(CCCCc2ccc(C(=O)NCCCn3ccnc3)cc2)cc1)NO [Example 22, N-(3-(1H-imidazol-1-yl)propyl)-4-(4-(4-(2-(hydroxyamino)-2-oxoethyl)phenyl)butyl)benzamide] | 0.188 | 0.250 | 0.313 | 0.141 | 0.156 | 0.125 | 16 | 16 | (⅛x) | (⅛x) | ( 1/16x) | 2 | 2 | 1 | > 8 | > 8 | > 8 | > 8 | 8 (≈ 18.4 µM) | > 8 |
| Cn1cnc(CNC(=O)c2ccc(CCCCc3ccc(CC(=O)NO)cc3)cc2)c1 [Example 23, 4-(4-(4-(2-(hydroxyamino)-2-oxoethyl)phenyl)butyl)-N-((1-methyl-1H-imidazol-4-yl)methyl)benzamide] | 0.313 | 0.250 | 0.375 | 0.266 | 0.156 | 0.188 | > 8 | > 8 | – | – | – | 4 | 2 | 2 | > 8 | > 8 | > 8 | > 8 | 8 (≈ 19 µM) | > 8 |

Further lines, results first:

| FICI of combination resulting in fluconazole MIC of: 2 ug/mL (C. glabrata; C. glabrata) | FICI of combination resulting in fluconazole MIC of: 4 ug/mL (C. glabrata; C. glabrata) | FICI of combination resulting in fluconazole MIC of: 8 ug/mL (C. glabrata; C. glabrata) | FICI of combination resulting in fluconazole MIC of: 2 ug/mL (value in parenthesis) (C. glabrata; C. glabrata) | FICI of combination resulting in fluconazole MIC of: 4 ug/mL (value in parenthesis) (C. glabrata; C. glabrata) | FICI of combination resulting in fluconazole MIC of: 8 ug/mL (value in parenthesis) (C. glabrata; C. glabrata) | MIC (C. glabrata; [1]) [µg/mL] | MIC (C. glabrata; [2]) [µg/mL] | Multiple of compound MIC to synergize fluconazole MIC to 2 ug/mL (C. glabrata) | Multiple of compound MIC to synergize fluconazole MIC to 4 ug/mL (C. glabrata) | Multiple of compound MIC to synergize fluconazole MIC to 8 ug/mL (C. glabrata) | Concentration of Methylgene compound to synergize fluconazole MIC to 2 ug/mL (C. glabrata; C. glabrata) [µg/mL] | Concentration of Methylgene compound to synergize fluconazole MIC to 4 ug/mL (C. glabrata; C. glabrata) [µg/mL] | Concentration of Methylgene compound to synergize fluconazole MIC to 8 ug/mL (C. glabrata; C. glabrata) [µg/mL] | MIC (Candida parapsilosis; [3]) [µg/mL] | MIC (Candida parapsilosis; [4]) [µg/mL] | MIC (Candida albicans; [3]) [µg/mL] | MIC (Candida albicans; [4]) [µg/mL] | MIC (Candida glabrata; [3]) [µg/mL] | MIC (Candida glabrata; [4]) [µg/mL] | SMILES |
| --- | --- | --- | --- | --- | --- | --- | --- | --- | --- | --- | --- | --- | --- | --- | --- | --- | --- | --- | --- | --- |
| 0.313 | 0.250 | 0.313 | 0.266 | 0.156 | 0.125 | > 16 | > 16 | – | – | – | 8 | 4 | 2 | > 64 | > 64 | > 64 | > 64 | 16 (≈ 27.9 µM) | 64 (≈ 112 µM) | O=C(Cc1ccc(CCCCc2ccc(C(=O)N3CCOCCOCCOCCOCCOCC3)cc2)cc1)NO [Example 24, 2-(4-(4-(4-(1,4,7,10,13-pentaoxa-16-azacyclooctadecane-16-carbonyl)phenyl)butyl)phenyl)-N-hydroxyacetamide] |
| 0.563 | 0.375 | 0.375 | 0.516 | 0.281 | 0.188 | > 16 | > 16 | – | – | – | 16 | 8 | 4 | > 64 | > 64 | > 64 | > 64 | 16 (≈ 53.4 µM) | 64 (≈ 214 µM) | O=C(Cc1ccc(CCCC(O)c2ccccc2)cc1)NO (stereo not shown) [Example 25, N-hydroxy-2-(4-(4-hydroxy-4-phenylbutyl)phenyl)acetamide] |
| 0.313 | 0.250 | 0.313 | 0.266 | 0.156 | 0.125 | 8 | 8 | (¼x) | (⅛x) | ( 1/16x) | 2 | 1 | 0.5 | 4 (≈ 13.3 µM) | 8 (≈ 26.5 µM) | 4 (≈ 13.3 µM) | 8 (≈ 26.5 µM) | 2 (≈ 6.64 µM) | 8 (≈ 26.5 µM) | O=C(Cc1ccc(CCCC(F)c2ccccc2)cc1)NO (stereo not shown) [Example 26, 2-(4-(4-fluoro-4-phenylbutyl)phenyl)-N-hydroxyacetamide] |
| 0.313 | 0.375 | 0.375 | 0.266 | 0.281 | 0.188 | 16 | 16 | (¼x) | (¼x) | (⅛x) | 4 | 4 | 2 | > 64 | > 64 | 64 (≈ 205 µM) | 64 (≈ 205 µM) | 8 (≈ 25.6 µM) | 16 (≈ 51.2 µM) | O=C(Cc1ccc(CCC/C(=N\O)c2ccccc2)cc1)NO [Example 27, (E)-N-hydroxy-2-(4-(4-(hydroxyimino)-4-phenylbutyl)phenyl) acetamide] |

— patent US20140081017A1, “Histone Deacetylase Inhibitors for Enhancing Activity of Antifungal Agents” (METHYLGENE INC., priority 2012, published 2014)
